This is an account of results in patent US10231453B2, “5-substituted imidazole derivatives” (BAYER CROPSCIENCE AKTIENGESELLSCHAFT, priority 2015, dated 2019).

For one data set, the system named is Fusarium nivale (var. majus). Description: In vivo preventive Fusarium nivale (var. majus) test (wheat), Example O. Conditions: Microdochium nivale, 120 h, 500 ppm of active ingredient, preventive spray, evaluated 5 days after inoculation, read-out: efficacy. The text has this: After the spray coating has been dried, the plants are slightly injured by using a sandblast and afterwards they are sprayed with a conidia suspension of Fusarium nivale (var. majus).
In the case of `OC(Cc1ccncc1F)(Cn1cncc1Cl)C1(Cl)CC1` (stereo not shown) [Example I-164], the pest or weed control at 500 ppm lay within 80 to 89%.

Take `OC(Cc1c(Cl)ccnc1Cl)(Cn1cncc1Cl)C1(Cl)CC1` (stereo not shown) [Example I-11]: the pest or weed control at 500 ppm is 80 to 89%.

Consider `COC(=O)c1cncn1CC(O)(Cc1ccccc1Cl)C1(Cl)CC1` (stereo not shown) [Example I-01], for which the pest or weed control at 500 ppm is 70 to 79%.

`N#Cc1cncn1CC(O)(Cc1ccc(Br)cc1Cl)C1(Cl)CC1` (stereo not shown) [Example I-41]: the pest or weed control at 500 ppm was in the range of 80 to 89%.

Consider `N#Cc1cncn1CC(O)(Cc1ccnc(Cl)c1Cl)C1(Cl)CC1` (stereo not shown) [Example I-50], for which the pest or weed control at 500 ppm lay in the range of 90 to 100%.

Regarding `N#Cc1cncn1CC(O)(Cc1ccccc1C(F)(F)F)C1(Cl)CC1` (stereo not shown) [Example I-88], the pest or weed control at 500 ppm was 80 to 89%.

The next data set concerns Fusarium graminearum. Briefly: whole plant or invertebrate. It is filed as in vivo. The following applies: in Hordeum vulgare, 120 h, read-out: efficacy.
As for `N#Cc1cncn1CC(O)(Cc1ccc(Br)cc1Cl)C1(Cl)CC1` (stereo not shown) [Example I-41], the pest or weed control at 500 ppm is 90 to 100%.

For `N#Cc1cncn1CC(O)(Cc1ccccc1C(F)(F)F)C1(Cl)CC1` (stereo not shown) [Example I-88], the pest or weed control at 500 ppm is 90 to 100%.

Another data set relates to Pyricularia oryzae. Briefly: whole plant or invertebrate. It is filed as in vivo. The following applies: 192 h, read-out: efficacy.
Regarding `OC(Cc1ccncc1F)(Cn1cncc1Cl)C1(Cl)CC1` (stereo not shown) [Example I-164], the pest or weed control at 500 ppm was in the range of 70 to 79%.

`OC(Cc1c(Cl)ccnc1Cl)(Cn1cncc1Cl)C1(Cl)CC1` (stereo not shown) [Example I-11]: the pest or weed control at 500 ppm was in the range of 80 to 89%.

For the compound `N#Cc1cncn1CC(O)(Cc1ccnc(Cl)c1Cl)C1(Cl)CC1` (stereo not shown) [Example I-50], the pest or weed control at 500 ppm lay in the range of 70 to 79%.

The test system of a further data set is Pyrenophora teres. Description: In vivo preventive test on Pyrenophora teres (net blotch on barley), Examples D, Q2 and R4. The following applies: Pyrenophora teres, 336 h, 500 ppm of active ingredient, preventive spray, evaluated 14 days after inoculation, read-out: efficacy.
With `OC(Cc1ccncc1F)(Cn1cncc1Cl)C1(Cl)CC1` (stereo not shown) [Example I-164], the pest or weed control at 500 ppm fell in the range of 80 to 89%.

With `OC(Cc1c(Cl)ccnc1Cl)(Cn1cncc1Cl)C1(Cl)CC1` (stereo not shown) [Example I-11], the pest or weed control at 500 ppm is 80 to 89%.

Turning to `COC(=O)c1cncn1CC(O)(Cc1ccccc1Cl)C1(Cl)CC1` (stereo not shown) [Example I-01], the pest or weed control at 500 ppm lay in the range of 90 to 100%.

With `N#Cc1cncn1CC(O)(Cc1ccnc(Cl)c1Cl)C1(Cl)CC1` (stereo not shown) [Example I-50], the pest or weed control at 500 ppm was 80 to 89%.

As for `N#Cc1cncn1CC(O)(Cc1ccccc1C(F)(F)F)C1(Cl)CC1` (stereo not shown) [Example I-88], the pest or weed control at 500 ppm fell in the range of 90 to 100%.

Another data set has as its system Blumeria graminis fsp. hordei. Description: In vivo preventive Blumeria test (barley), Example K. Conditions: 168 h, 500 ppm of active ingredient, preventive spray, evaluated 7 days after inoculation, read-out: efficacy. The text has this: After the spray coating has been dried, the plants are dusted with spores of Blumeria graminis fsp. hordei.
With `OC(Cc1ccncc1F)(Cn1cncc1Cl)C1(Cl)CC1` (stereo not shown) [Example I-164], the pest or weed control at 500 ppm was in the range of 90 to 100%.

`COC(=O)c1cncn1CC(O)(Cc1ccccc1Cl)C1(Cl)CC1` (stereo not shown) [Example I-01]: the pest or weed control at 500 ppm was in the range of 90 to 100%.

On to `N#Cc1cncn1CC(O)(Cc1ccc(Br)cc1Cl)C1(Cl)CC1` (stereo not shown) [Example I-41], for which the pest or weed control at 500 ppm lay in the range of 90 to 100%.

As to `N#Cc1cncn1CC(O)(Cc1ccnc(Cl)c1Cl)C1(Cl)CC1` (stereo not shown) [Example I-50], the pest or weed control at 500 ppm was in the range of 90 to 100%.

For `N#Cc1cncn1CC(O)(Cc1ccccc1C(F)(F)F)C1(Cl)CC1` (stereo not shown) [Example I-88], the pest or weed control at 500 ppm lay within 90 to 100%.

The subject of a further data set is Phakopsora pachyrhizi. Briefly: In vivo preventive Phakopsora test (soybeans), Example I. Conditions: 168 h, 100 ppm of active ingredient, preventive spray, evaluated 7 days after inoculation, read-out: efficacy.
For the compound `N#Cc1cncn1CC(O)(Cc1ccnc(Cl)c1Cl)C1(Cl)CC1` (stereo not shown) [Example I-50], the pest or weed control at 100 ppm is 80 to 89%.

For a further data set, the system named is Puccinia recondita. Briefly: In vivo preventive test on Puccinia recondita (brown rust on wheat), Examples C and R3. Conditions: Puccinia recondita, 264 h; 500 ppm of active ingredient; wheat, preventive spray, evaluated 11 days after inoculation; read-out: efficacy.
`OC(Cc1ccncc1F)(Cn1cncc1Cl)C1(Cl)CC1` (stereo not shown) [Example I-164]: the pest or weed control at 500 ppm lay in the range of 80 to 89%.

With `OC(Cc1c(Cl)ccnc1Cl)(Cn1cncc1Cl)C1(Cl)CC1` (stereo not shown) [Example I-11], the pest or weed control at 500 ppm lay within 80 to 89%.

In the case of `COC(=O)c1cncn1CC(O)(Cc1ccccc1Cl)C1(Cl)CC1` (stereo not shown) [Example I-01], the pest or weed control at 500 ppm lay within 90 to 100%.

Turning to `N#Cc1cncn1CC(O)(Cc1ccc(Br)cc1Cl)C1(Cl)CC1` (stereo not shown) [Example I-41], the pest or weed control at 500 ppm lay within 90 to 100%.

For the compound `N#Cc1cncn1CC(O)(Cc1ccnc(Cl)c1Cl)C1(Cl)CC1` (stereo not shown) [Example I-50], the pest or weed control at 500 ppm lay within 80 to 89%.

In the case of `N#Cc1cncn1CC(O)(Cc1ccccc1C(F)(F)F)C1(Cl)CC1` (stereo not shown) [Example I-88], the pest or weed control at 500 ppm lay in the range of 90 to 100%.

For a further data set, the system named is Venturia inaequalis. Briefly: In vivo preventive Venturia test (apples), Example J. The following applies: 240 h, read-out: efficacy.
Description: After the spray coating has dried on, the plants are inoculated with an aqueous conidia suspension of the causal agent of apple scab (Venturia inaequalis) and then remain for 1 day in an incubation cabinet at approximately 20° C. and a relative atmospheric humidity of 100%.
The plants are then placed in a greenhouse at approximately 21° C. and a relative atmospheric humidity of approximately 90%.
The test is evaluated 10 days after the inoculation.
Consider `N#Cc1cncn1CC(O)(Cc1ccnc(Cl)c1Cl)C1(Cl)CC1` (stereo not shown) [Example I-50], for which the pest or weed control at 100 ppm is 80 to 89%.

The test system of another data set is Uromyces appendiculatus. Briefly: In vivo preventive test on Uromyces appendiculatus (bean rust), Examples G and R7. The following applies: 264 h, 500 ppm of active ingredient, bean, preventive spray, evaluated 11 days after inoculation, read-out: efficacy.
As for `OC(Cc1ccncc1F)(Cn1cncc1Cl)C1(Cl)CC1` (stereo not shown) [Example I-164], the pest or weed control at 500 ppm was in the range of 90 to 100%.

Turning to `OC(Cc1c(Cl)ccnc1Cl)(Cn1cncc1Cl)C1(Cl)CC1` (stereo not shown) [Example I-11], the pest or weed control at 500 ppm was 90 to 100%.

On to `COC(=O)c1cncn1CC(O)(Cc1ccccc1Cl)C1(Cl)CC1` (stereo not shown) [Example I-01], for which the pest or weed control at 500 ppm was in the range of 90 to 100%.

As to `N#Cc1cncn1CC(O)(Cc1ccc(Br)cc1Cl)C1(Cl)CC1` (stereo not shown) [Example I-41], the pest or weed control at 500 ppm is 90 to 100%.

Regarding `N#Cc1cncn1CC(O)(Cc1ccnc(Cl)c1Cl)C1(Cl)CC1` (stereo not shown) [Example I-50], the pest or weed control at 500 ppm was in the range of 90 to 100%.

On to `N#Cc1cncn1CC(O)(Cc1ccccc1C(F)(F)F)C1(Cl)CC1` (stereo not shown) [Example I-88], for which the pest or weed control at 500 ppm lay in the range of 90 to 100%.

The subject of the next data set is Septoria tritici. Description: In vivo preventive test on Septoria tritici (leaf spot on wheat), Examples E, Q3 and R5. Conditions: Zymoseptoria tritici, 576 h, 500 ppm of active ingredient; wheat, preventive spray, evaluated 24 days after inoculation; read-out: efficacy.
As for `OC(Cc1ccncc1F)(Cn1cncc1Cl)C1(Cl)CC1` (stereo not shown) [Example I-164], the pest or weed control at 500 ppm was 90 to 100%.

As to `OC(Cc1c(Cl)ccnc1Cl)(Cn1cncc1Cl)C1(Cl)CC1` (stereo not shown) [Example I-11], the pest or weed control at 500 ppm was 90 to 100%.

`COC(=O)c1cncn1CC(O)(Cc1ccccc1Cl)C1(Cl)CC1` (stereo not shown) [Example I-01]: the pest or weed control at 500 ppm fell in the range of 90 to 100%.

With `N#Cc1cncn1CC(O)(Cc1ccc(Br)cc1Cl)C1(Cl)CC1` (stereo not shown) [Example I-41], the pest or weed control at 500 ppm lay within 90 to 100%.

For `N#Cc1cncn1CC(O)(Cc1ccnc(Cl)c1Cl)C1(Cl)CC1` (stereo not shown) [Example I-50], the pest or weed control at 500 ppm was 90 to 100%.

Turning to `N#Cc1cncn1CC(O)(Cc1ccccc1C(F)(F)F)C1(Cl)CC1` (stereo not shown) [Example I-88], the pest or weed control at 500 ppm was 90 to 100%.

For the next data set, the system named is Sphaerotheca fuliginea. Briefly: In vivo preventive test on Sphaerotheca fuliginea (powdery mildew on cucurbits), Examples F and R6. Conditions: Podosphaera fuliginea, 360 h; 500 ppm of active ingredient; gherkin, preventive spray, evaluated 15 days after inoculation; read-out: efficacy.
`OC(Cc1ccncc1F)(Cn1cncc1Cl)C1(Cl)CC1` (stereo not shown) [Example I-164]: the pest or weed control at 500 ppm fell in the range of 90 to 100%.

As for `OC(Cc1c(Cl)ccnc1Cl)(Cn1cncc1Cl)C1(Cl)CC1` (stereo not shown) [Example I-11], the pest or weed control at 500 ppm was 90 to 100%.

Consider `COC(=O)c1cncn1CC(O)(Cc1ccccc1Cl)C1(Cl)CC1` (stereo not shown) [Example I-01], for which the pest or weed control at 500 ppm was in the range of 90 to 100%.

On to `N#Cc1cncn1CC(O)(Cc1ccc(Br)cc1Cl)C1(Cl)CC1` (stereo not shown) [Example I-41], for which the pest or weed control at 500 ppm was in the range of 90 to 100%.

`N#Cc1cncn1CC(O)(Cc1ccnc(Cl)c1Cl)C1(Cl)CC1` (stereo not shown) [Example I-50]: the pest or weed control at 500 ppm was 90 to 100%.

In the case of `N#Cc1cncn1CC(O)(Cc1ccccc1C(F)(F)F)C1(Cl)CC1` (stereo not shown) [Example I-88], the pest or weed control at 500 ppm lay in the range of 90 to 100%.

For the next data set, the system named is Leptosphaeria nodorum. Briefly: In vivo preventive Leptosphaeria nodorum test (wheat), Example N. Conditions: Parastagonospora nodorum, 192 h, 500 ppm of active ingredient, preventive spray, evaluated 8 days after inoculation, read-out: efficacy. The text has this: After the spray coating has been dried, the plants are sprayed with a spore suspension of Leptosphaeria nodorum.
As to `OC(Cc1c(Cl)ccnc1Cl)(Cn1cncc1Cl)C1(Cl)CC1` (stereo not shown) [Example I-11], the pest or weed control at 500 ppm lay in the range of 80 to 89%.

Regarding `N#Cc1cncn1CC(O)(Cc1ccc(Br)cc1Cl)C1(Cl)CC1` (stereo not shown) [Example I-41], the pest or weed control at 500 ppm was in the range of 70 to 79%.

The subject of another data set is Alternaria brassicae. Briefly: In vivo preventive test on Alternaria brassicae (leaf spot on radish), Examples A and R1. Conditions: Alternaria brassicae, 144 h, 500 ppm of active ingredient, preventive spray, evaluated 6 days after inoculation, read-out: efficacy.
In the case of `COC(=O)c1cncn1CC(O)(Cc1ccccc1Cl)C1(Cl)CC1` (stereo not shown) [Example I-01], the pest or weed control at 500 ppm was 80 to 89%.

For the next data set, the system named is Alternaria solani. Briefly: In vivo preventive Alternaria test (tomatoes), Example H. Conditions: 72 h, 100 ppm of active ingredient, preventive spray, evaluated 3 days after inoculation, read-out: efficacy.
`N#Cc1cncn1CC(O)(Cc1ccnc(Cl)c1Cl)C1(Cl)CC1` (stereo not shown) [Example I-50]: the pest or weed control at 100 ppm lay within 70 to 79%.

Test system in another data set: not listed separately
Description: Measurement of LogP values by HPLC on reversed phase columns (EEC directive 79/831 Annex V.A8). Conditions: method [a]: LC-UV, acidic range, 0.1% formic acid in water and acetonitrile as eluent; Table 1. It is filed as physicochemical. The procedure:
Measurement of Log P values was performed as outlined above.
`OC(Cc1ccncc1F)(Cn1cncc1Cl)C1(Cl)CC1` (stereo not shown) [Example I-164] gave a chromatographic logP of 1.46.

With `OC(Cc1c(Cl)ccnc1Cl)(Cn1cncc1Cl)C1(Cl)CC1` (stereo not shown) [Example I-11], the chromatographic logP was found to be 2.02.

Compound `COC(=O)c1cncn1CC(O)(Cc1ccccc1Cl)C1(Cl)CC1` (stereo not shown) [Example I-01] returned a chromatographic logP of 2.82.

Consider `N#Cc1cncn1CC(O)(Cc1ccc(Br)cc1Cl)C1(Cl)CC1` (stereo not shown) [Example I-41], for which the chromatographic logP is 3.52.

Compound `N#Cc1cncn1CC(O)(Cc1ccnc(Cl)c1Cl)C1(Cl)CC1` (stereo not shown) [Example I-50] had a chromatographic logP of 2.47.

Compound `N#Cc1cncn1CC(O)(Cc1ccccc1C(F)(F)F)C1(Cl)CC1` (stereo not shown) [Example I-88] returned a chromatographic logP of 3.15.

A further data set deals with Botrytis cinerea. Briefly: In vivo preventive test on Botrytis cinerea (grey mould) on gherkin, Examples B, Q1 and R2. The following applies: Botrytis cinerea, 500 ppm of active ingredient, preventive spray, evaluated 4 to 5 days after inoculation, read-out: efficacy.
Turning to `OC(Cc1ccncc1F)(Cn1cncc1Cl)C1(Cl)CC1` (stereo not shown) [Example I-164], the pest or weed control at 500 ppm fell in the range of 90 to 100%.

Broadly, the chromatographic logP is lipophilicity estimated from chromatographic retention. Read a high chromatographic logP as a more lipophilic compound.
